This assay addresses T1, Bile acid receptor (Homo sapiens, UniProt Q96RI1).
T1 sequence (Q96RI1 whole entry): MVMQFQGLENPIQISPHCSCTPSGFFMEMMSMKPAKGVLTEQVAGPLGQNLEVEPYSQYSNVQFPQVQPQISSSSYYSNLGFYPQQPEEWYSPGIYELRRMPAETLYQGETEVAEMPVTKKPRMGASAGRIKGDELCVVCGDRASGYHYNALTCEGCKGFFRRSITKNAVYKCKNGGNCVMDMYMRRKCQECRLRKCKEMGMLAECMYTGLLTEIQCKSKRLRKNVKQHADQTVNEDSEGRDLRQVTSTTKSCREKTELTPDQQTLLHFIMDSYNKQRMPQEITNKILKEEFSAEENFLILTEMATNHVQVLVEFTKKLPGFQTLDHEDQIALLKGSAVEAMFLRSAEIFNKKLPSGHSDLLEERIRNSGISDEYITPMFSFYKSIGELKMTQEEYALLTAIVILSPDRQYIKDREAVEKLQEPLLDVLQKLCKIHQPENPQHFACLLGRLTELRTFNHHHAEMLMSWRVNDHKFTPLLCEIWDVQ
The assay is described as follows: FXR Reporter Assay kit purchased from Indigo Bioscience (Catalogue number: IB00601) to determine the potency and efficacy of compound developed by Enanta that can induce FXR activation. The principle application of this reporter assay system is to quantify functional activity of human FXR. The assay utilizes non-human mammalian cells, CHO (Chinese hamster ovary) cells engineered to express human NR1H4 protein (referred to as FXR). Reporter cells also incorporate the cDNA encoding beetle luciferase which catalyzes the substrates and yields photon emission. Luminescence intensity of the reaction is quantified using a plate-reading luminometer, Envision. Reporter Cells include the luciferase reporter gene functionally linked to an FXR responsive promoter. Thus, quantifying changes in luciferase expression in the treated reporter cells provides a sensitive surrogate measure of the changes in FXR activity. […] The assay is according to the manufacturer's instructions. In brief, the assay was performed in white, 96 well plates using final volume of 100 μl containing cells with different doses of compounds. Retrieve Reporter Cells from −80° C. storage. Perform a rapid thaw of the frozen cells by transferring a 10 ml volume of 37° C. cell recovery medium into the tube of frozen cells. Recap the tube of Reporter Cells and immediately place it in a 37° C. water bath for 5-10 minutes. […]. The format is cell-based.

SMILES strings stand for the structures.

As usually defined, the EC50 is the concentration giving half of the maximal effect. Low readings indicate higher potency in that assay, high ones lower potency in that assay. `CN(C)S(=O)(=O)NC(=O)c1ccc2nc(N3C4CC[C@H]3C[C@H](OCc3c(-c5c(Cl)cccc5Cl)noc3C3CC3)C4)sc2c1` had an EC50 of less than 100 nM.
